Molecules are shown by their SMILES. Where two headings read alike, the source gives them in different places.

The values that follow come from patent publication US20250325677A1, “STAT6 DEGRADERS” (Gilead Sciences, Inc., priority 2024, published 2025).

One experiment concerns eotaxin-3 release. As to the kind of experiment: Human whole blood eotaxin-3 assay (IL-4 stimulated). The experiment is classed as cell-based. The essentials: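 Human whole blood was preincubated with compound for 120 min at 37 °C, then stimulated with recombinant human IL-4 (E. coli) at 0.4 nM final for 48 h. Inhibition of eotaxin-3 release gave EC50 values.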
Another experiment addresses STAT6 (Homo sapiens (Human), UniProt P42226). As to the kind of experiment: STAT6 degrader assay (HiBiT, HeLa LgBiT clone 4.14). The experiment is classed as cell-based. The essentials: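 DC50 (nM) comes from luminescence of non-degraded STAT6 read 0.5 h after Nano-GLO addition, following 4-24 h compound exposure at 37° C. Cells were HeLa clone 4.14 expressing LgBiT with a CRISPR HiBiT tag on endogenous STAT6; 50 μM terfenadine set full degradation.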

The mark [1] stands for this setting: human whole blood, IL-4 0.4 nM, 48 hours, geometric mean, given for compounds with >80% Emax, read-out: Eotaxin-3 EC50.
Where [2] appears, read: HeLa LgBiT clone 4.14, 4-24 h; geometric mean; given for compounds with >80% Emax; read-out: STAT6 degradation DC50.

Chain of STAT6 (P42226 whole entry): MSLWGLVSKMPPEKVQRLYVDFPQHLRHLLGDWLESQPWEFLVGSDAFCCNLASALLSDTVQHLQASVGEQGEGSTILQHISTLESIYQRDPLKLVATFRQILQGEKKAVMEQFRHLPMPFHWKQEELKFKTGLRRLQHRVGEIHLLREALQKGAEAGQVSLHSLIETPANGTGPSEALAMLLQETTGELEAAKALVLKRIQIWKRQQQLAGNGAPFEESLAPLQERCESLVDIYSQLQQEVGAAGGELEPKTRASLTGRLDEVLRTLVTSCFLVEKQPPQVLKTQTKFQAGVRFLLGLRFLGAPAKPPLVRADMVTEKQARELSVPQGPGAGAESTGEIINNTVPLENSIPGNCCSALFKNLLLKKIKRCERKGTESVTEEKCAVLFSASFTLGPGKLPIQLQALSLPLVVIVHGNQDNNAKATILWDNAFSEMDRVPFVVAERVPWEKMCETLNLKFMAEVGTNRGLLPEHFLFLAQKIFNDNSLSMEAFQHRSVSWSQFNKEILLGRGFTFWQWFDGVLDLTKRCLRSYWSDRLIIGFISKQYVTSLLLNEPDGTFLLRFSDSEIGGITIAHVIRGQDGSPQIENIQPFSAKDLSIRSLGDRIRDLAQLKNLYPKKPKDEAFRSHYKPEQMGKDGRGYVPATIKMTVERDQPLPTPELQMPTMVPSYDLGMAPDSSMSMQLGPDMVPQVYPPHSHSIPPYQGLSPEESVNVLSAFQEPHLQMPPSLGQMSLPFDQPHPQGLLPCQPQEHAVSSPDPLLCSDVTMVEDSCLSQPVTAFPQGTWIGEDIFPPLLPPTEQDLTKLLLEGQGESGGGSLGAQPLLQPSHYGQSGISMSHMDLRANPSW

`C[C@@H](c1cc2c(-c3ccc(N)nc3)ccnc2n1C)N1CCC(c2ccc(C(=O)N3CCC(F)(CN4CCN(Cc5ccc6c(c5)n(C)c(=O)n6C5CCC(=O)NC5=O)CC4)CC3)cc2)CC1` (stereo partly drawn) [Example 3e32, 3-(5-((4-((1-(4-(1-((S)-1-(4-(6-aminopyridin-3-yl)-1-methyl-1H-pyrrolo[2,3-b]pyridin-2-yl)ethyl)piperidin-4-yl)benzoyl)-4-fluoropiperidin-4-yl)methyl)piperazin-1-yl)methyl)-3-methyl-2-oxo-2,3-dihydro-1H-benzo[d]imidazol-1-yl)piperidine-2,6-dione]: the EC50 in the experiment with eotaxin-3 release (setting [1]) came to 7.8 nM. Also, at STAT6 (setting [2]), the DC50 is 1.6 nM.

For the compound `C[C@@H](c1cc2c(-c3ccc(N)nc3)ccnc2n1C)N1CCC(c2ccc(C(=O)N3CCC(CN4CCN(Cc5cc6c(cc5F)n(C5CCC(=O)NC5=O)c(=O)n6C5CC5)CC4)CC3)cc2)CC1` (stereo partly drawn) [Example 3e35, 3-(5-((4-((1-(4-(1-((S)-1-(4-(6-aminopyridin-3-yl)-1-methyl-1H-pyrrolo[2,3-b]pyridin-2-yl)ethyl)piperidin-4-yl)benzoyl)piperidin-4-yl)methyl)piperazin-1-yl)methyl)-3-cyclopropyl-6-fluoro-2-oxo-2,3-dihydro-1H-benzo[d]imidazol-1-yl)piperidine-2,6-dione], the half-maximal effective concentration (EC50) in the experiment on eotaxin-3 release (setting [1]) was 7.9 nM. The DC50 on STAT6 (setting [2]) came to 3.2 nM.

For the compound `C[C@H]1CN(Cc2ccc3c(c2)C(C)(C)C(=O)N3[C@H]2CCC(=O)NC2=O)CCN1CC1CCN(C(=O)c2ccc(C3CCN([C@@H](C)c4cc5c(-c6ccc(N)nc6)ccnc5n4C)CC3)cc2)CC1` [Example 3h31, (S)-3-(5-(((S)-4-((1-(4-(1-((S)-1-(4-(6-aminopyridin-3-yl)-1-methyl-1H-pyrrolo[2,3-b]pyridin-2-yl)ethyl)piperidin-4-yl)benzoyl)piperidin-4-yl)methyl)-3-methylpiperazin-1-yl)methyl)-3,3-dimethyl-2-oxoindolin-1-yl)piperidine-2,6-dione], the EC50 in the experiment with eotaxin-3 release (setting [1]) amounted to 8 nM. In addition, the DC50 at STAT6 (setting [2]) stood at 2.5 nM.

`CNc1ccc(-c2ccnc3c2cc([C@H](C)N2CC=C(c4c(C)cc(C(=O)N(C)c5ccc(C6CCN(Cc7ccc8c(c7)C7(CC7)C(=O)N8C7CCC(=O)NC7=O)CC6)cc5)cc4F)CC2)n3C)cn1` (stereo partly drawn) [Example 3h11, N-(4-(1-((1′-(2,6-dioxopiperidin-3-yl)-2′-oxospiro[cyclopropane-1,3′-indolin]-5′-yl)methyl)piperidin-4-yl)phenyl)-3-fluoro-N,5-dimethyl-4-(1-((S)-1-(1-methyl-4-(6-(methylamino)pyridin-3-yl)-1H-pyrrolo[2,3-b]pyridin-2-yl)ethyl)-1,2,3,6-tetrahydropyridin-4-yl)benzamide]: in the experiment with eotaxin-3 release (setting [1]), the EC50 came to 2.8 nM. For the same compound, at STAT6 (setting [2]), the DC50 was found to be 0.3 nM.

Consider `Cn1c(CN2CCC(c3ccc(C(=O)N4CCC(CN5CCN(Cc6ccc7c(c6)n(C)c(=O)n7C6CCC(=O)NC6=O)CC5)CC4)cc3)CC2)cc2c(-c3ccc(N)nc3)ccnc21` (stereo not shown) [Example 3e2, 3-(5-((4-((1-(4-(1-((4-(6-aminopyridin-3-yl)-1-methyl-1H-pyrrolo[2,3-b]pyridin-2-yl)methyl)piperidin-4-yl)benzoyl)piperidin-4-yl)methyl)piperazin-1-yl)methyl)-3-methyl-2-oxo-2,3-dihydro-1H-benzo[d]imidazol-1-yl)piperidine-2,6-dione], for which the EC50 in the experiment with eotaxin-3 release (setting [1]) came to 98.7 nM. Also, at STAT6 (setting [2]), the DC50 was 4.6 nM.

Regarding `C[C@H]1CN(Cc2ccc3c(c2)C2(CCC2)C(=O)N3C2CCC(=O)NC2=O)CCN1CC1CCN(C(=O)c2ccc(C3CCN([C@@H](C)c4cc5c(-c6ccc(N)nc6)ccnc5n4C)CC3)cc2)CC1` (stereo partly drawn) [Example 3h48, 3-(5′-(((S)-4-((1-(4-(1-((S)-1-(4-(6-aminopyridin-3-yl)-1-methyl-1H-pyrrolo[2,3-b]pyridin-2-yl)ethyl)piperidin-4-yl)benzoyl)piperidin-4-yl)methyl)-3-methylpiperazin-1-yl)methyl)-2′-oxospiro-[cyclobutane-1,3′-indolin]-1′-yl)piperidine-2,6-dione], the EC50 with eotaxin-3 release (setting [1]) amounted to 13.2 nM. Also, on STAT6 (setting [2]), the DC50 stood at 3 nM.

For `C[C@H]1CN(Cc2ccc3c(c2)n(CC2CC2)c(=O)n3C2CCC(=O)NC2=O)CCN1CC1CCN(C(=O)c2ccc(C3CCN([C@@H](C)c4cc5c(-c6ccc(N)nc6)ccnc5n4C)CC3)cc2)CC1` (stereo partly drawn) [Example 3e54, 3-(5-(((S)-4-((1-(4-(1-((S)-1-(4-(6-aminopyridin-3-yl)-1-methyl-1H-pyrrolo[2,3-b]pyridin-2-yl)ethyl)piperidin-4-yl)benzoyl)piperidin-4-yl)methyl)-3-methylpiperazin-1-yl)methyl)-3-(cyclo-propylmethyl)-2-oxo-2,3-dihydro-1H-benzo[d]imidazol-1-yl)piperidine-2,6-dione], in the experiment with eotaxin-3 release (setting [1]), the EC50 is 3.6 nM. For the same compound, the 50% degradation concentration (DC50) at STAT6 (setting [2]) was 0.7 nM.

Take `C[C@H]1CN(Cc2ccc3c(c2)n(C)c(=O)n3C2CCC(=O)NC2=O)CCN1CC1CCN(C(=O)c2ccc(C3CCN([C@@H](C)c4cc5c(-c6ccc(N)nc6)ccnc5n4C)CC3)cc2)CC1` (stereo partly drawn) [Example 3e16, 3-(5-(((S)-4-((1-(4-(1-((S)-1-(4-(6-aminopyridin-3-yl)-1-methyl-1H-pyrrolo[2,3-b]pyridin-2-yl)ethyl)piperidin-4-yl)benzoyl)piperidin-4-yl)methyl)-3-methylpiperazin-1-yl)methyl)-3-methyl-2-oxo-2,3-dihydro-1H-benzo[d]imidazol-1-yl)piperidine-2,6-dione]: in the experiment with eotaxin-3 release (setting [1]), the EC50 came to 1.3 nM. Moreover, at STAT6 (setting [2]), the DC50 was 0.4 nM.

Take `C[C@H]1CN(Cc2ccc3c(c2)n(C)c(=O)n3C2CCC(=O)NC2=O)CCN1CC1CCN(C(=O)c2ccc(C3CCN(Cc4cc5c(-c6ccc(N)nc6)ccnc5n4C)CC3)cc2)CC1` (stereo partly drawn) [Example 3e9, 3-(5-(((S)-4-((1-(4-(1-((4-(6-aminopyridin-3-yl)-1-methyl-1H-pyrrolo[2,3-b]pyridin-2-yl)methyl)piperidin-4-yl)benzoyl)piperidin-4-yl)methyl)-3-methylpiperazin-1-yl)methyl)-3-methyl-2-oxo-2,3-dihydro-1H-benzo[d]imidazol-1-yl)piperidine-2,6-dione]: the EC50 in the experiment on eotaxin-3 release (setting [1]) was 31 nM. Also, the DC50 at STAT6 (setting [2]) turned out to be 0.75 nM.

As to `C[C@H]1CN(Cc2ccc3c(c2)n(C)c(=O)n3C2CCC(=O)NC2=O)CCN1CC1CCN(C(=O)c2ccc(C3CCN([C@@H](C)c4cc5c(-c6ccc(N)nn6)ccnc5n4C)CC3)cc2)CC1` (stereo partly drawn) [Example 3e52, 3-(5-(((S)-4-((1-(4-(1-((S)-1-(4-(6-aminopyridazin-3-yl)-1-methyl-1H-pyrrolo[2,3-b]pyridin-2-yl)ethyl)piperidin-4-yl)benzoyl)piperidin-4-yl)methyl)-3-methylpiperazin-1-yl)methyl)-3-methyl-2-oxo-2,3-dihydro-1H-benzo[d]imidazol-1-yl)piperidine-2,6-dione], the EC50 in the experiment with eotaxin-3 release (Homo sapiens, 48 h, read-out: Eotaxin-3 EC50 (nM)) turned out to be 1.5 nM. The DC50 at STAT6 (read-out: STAT6 degradation DC50; HeLa LgBiT clone 4.14, 4-24 h; geometric mean; given for compounds with >80% Emax) is 0.9 nM.

As for `CC[C@H]1CN(Cc2ccc3c(c2)n(C)c(=O)n3C2CCC(=O)NC2=O)CCN1CC1CCN(C(=O)c2ccc(C3CCN([C@@H](C)c4cc5c(-c6ccc(N)nc6)ccnc5n4C)CC3)cc2)CC1` (stereo partly drawn) [Example 3e23, 3-(5-(((S)-4-((1-(4-(1-((S)-1-(4-(6-aminopyridin-3-yl)-1-methyl-1H-pyrrolo[2,3-b]pyridin-2-yl)ethyl)piperidin-4-yl)benzoyl)piperidin-4-yl)methyl)-3-ethylpiperazin-1-yl)methyl)-3-methyl-2-oxo-2,3-dihydro-1H-benzo[d]imidazol-1-yl)piperidine-2,6-dione], the EC50 in the experiment on eotaxin-3 release (setting [1]) worked out at 4.2 nM. Further, the DC50 at STAT6 (setting [2]) was determined as 0.8 nM.

In the case of `C[C@H]1CN(Cc2ccc3c(c2)n(C)c(=O)n3C2CCC(=O)NC2=O)CCN1CC1CCN(C(=O)c2ccc(C3CCN([C@@H](C)c4cc5c(-c6cnc(N)c(F)c6)ccnc5n4C)CC3)cc2)CC1` (stereo partly drawn) [Example 3e47, 3-(5-(((S)-4-((1-(4-(1-((S)-1-(4-(6-amino-5-fluoropyridin-3-yl)-1-methyl-1H-pyrrolo[2,3-b]pyridin-2-yl)ethyl)piperidin-4-yl)benzoyl)piperidin-4-yl)methyl)-3-methylpiperazin-1-yl)methyl)-3-methyl-2-oxo-2,3-dihydro-1H-benzo[d]imidazol-1-yl)piperidine-2,6-dione], in the experiment with eotaxin-3 release (setting [1]), the EC50 came out at 4.9 nM. Further, the DC50 on STAT6 (setting [2]) is 2.2 nM.

For the compound `CC[C@H]1CN(Cc2ccc3c(c2)n(C2CC2)c(=O)n3[C@@H]2CCC(=O)NC2=O)CCN1CC1CCN(C(=O)c2ccc(C3CCN([C@@H](C)c4cc5c(-c6ccc(N)nc6)ccnc5n4C)CC3)cc2)CC1` (single isomer, unassigned) [Example 3e64], the EC50 in the experiment on eotaxin-3 release (setting [1]) is 6 nM. Also, the DC50 on STAT6 (setting [2]) came to 2 nM.

On to `C[C@H]1CN(Cc2cc3c(cc2F)n(C2CCC(=O)NC2=O)c(=O)n3C2CC2)CCN1CC1CCN(C(=O)c2ccc(C3CCN([C@@H](C)c4cc5c(-c6ccc(N)nc6)ccnc5n4C)CC3)cc2)CC1` (stereo partly drawn) [Example 3e58, 3-(5-(((S)-4-((1-(4-(1-((S)-1-(4-(6-aminopyridin-3-yl)-1-methyl-1H-pyrrolo[2,3-b]pyridin-2-yl)ethyl)piperidin-4-yl)benzoyl)piperidin-4-yl)methyl)-3-methylpiperazin-1-yl)methyl)-3-cyclopropyl-6-fluoro-2-oxo-2,3-dihydro-1H-benzo[d]imidazol-1-yl)piperidine-2,6-dione], for which the EC50 in the experiment on eotaxin-3 release (setting [1]) turned out to be 1.9 nM. At STAT6 (setting [2]), the DC50 came to 0.8 nM.
